The numbers were not newly measured in US20030175349A1, “Pharmaceutical compostion for extended/sustained release of a therapeutically active ingredient” (COUNCIL OF SCIENTIFIC AND INDUSTRIAL RESEARCH, priority 2002, published 2003), which cites them from elsewhere.

In the case of `CC(=O)Oc1ccccc1C(=O)O` [Aspirin, aspirin], the “solubility in water (in words)” value was “slightly soluble in water”. As to `Cc1ccc(S(=O)(=O)NC(=O)NN2CC3CCCC3C2)cc1` (stereo not drawn) [Gliclazide, gliclazide], the “solubility in water (in words)” value was “practically insoluble in water”. `CC(=O)OCC(COC(C)=O)OC(C)=O` [triacetin]: the “parts of water in which 1 part is soluble” value (at 20° C.) was 14 parts of water.
